From US11628179B2, “Compounds for treating and preventing extracellular histone mediated pathologies” (priority 2017, dated 2023)
Several values for one entry are separate records, joined by “and”; a condition that tells them apart may be missing. Identical values can stand only once.

How the values were obtained:
whole blood coagulation = experiment: ROTEM whole blood coagulation analysis (anticoagulant effect of compounds); settings: NATEM assay, 50 and 100 μg/mL
[1] = Stability of mCBS vs CBS in formulated clinical material (HPLC); format: physicochemical; settings: formulated clinical material in phosphate buffer, 5±3° C., 25±2° C./60% RH, 40±2° C./75% RH
Protocol: Stability studies were carried out at 5±3° C., 25±2° C./60% RH and 40±2° C./75% RH ° C. conditions. Levels of both mCBS and cellobiose sulfate (CBS) were tracked in formulated clinical material (i.e. mCBS in phosphate buffer) via HPLC.

[2] = mCBS vs CBS levels in bulk powder stored at −20° C. (CAD); format: physicochemical
Protocol: Table 2b compares mCBS vs CBS levels in a representative batch of bulk powder when stored at −20° C. over 24 months. T is for time in months. T=0 or T0 represents analytical results carried out on completion of manufacture. Subsequent analysis indicated are relative to the initial analysis of the drug powder or formulation (e.g. […] Analytical method employing CAD (Charged Aerosol Detector) was used to measure the level of mCBS purity and its impurities and expressed as CAD %.

[3] = mCBS vs CBS levels in phosphate buffered pH 7.5 clinical trial formulation stored at 2-8° C. (CAD); format: physicochemical
human RBCs [4] = experiment: Histone-induced RBC aggregation (flow cytometry autofluorescence, SEM); format: cell-based; settings: 0-200 μg/mL added prior to 400 μg/mL histones
human RBCs [5] = experiment: Histone-induced RBC fragility / lysis under shear; format: cell-based; settings: 0-200 μg/mL prior to 400 μg/mL histones 60 min; 100 mm/s, 40× repetitions
human platelets = experiment: Histone-induced platelet aggregation; format: cell-based; settings: compounds added prior to histones 150 μg/mL
[6] = system: Human platelets in whole blood; experiment: Histone-induced platelet degranulation (ATP release); format: cell-based; settings: compounds added prior to histones 400 μg/mL
[7] = Lipid bilayer assay (histone rupture of bilayers)
Protocol: Lipid bilayer assays. Artificial lipid bilayers, prepared as previously described (Rebbeck, R. T. et al. The beta (1a) subunit of the skeletal DHPR binds to skeletal RyR1 and activates the channel via its 35-residue C-terminal tail. Biophys J 100, 922-930, doi:10.1016/j.bpj.2011.01.022 (2011).), separated symmetrical 150 mM or 250 mM KCl (pH ˜5.5) solutions. Histones (1 μM, 15.2 μg ml^−1) were added to bilayers alone or after 0.5-3 h incubation with 10 μM CBS (3.5 μg ml^−1) or 10 μM MTS (5.1 μg ml^−1) at −20° C. Current was recorded continuously after histone addition until the bilayers broke or the experiment was terminated.
To examine this possibility artificial lipid bilayers were prepared and their susceptibility to histone rupture detected by changes in current across the bilayers.

mice = experiment: In-vivo histone toxicity assay, organ damage markers at 4 hr; design: species or system mouse; settings: 6.25, 25 and 100 mg/kg i.p. 10 min prior to histones 50 mg/kg i.v.; blood at 4 hr
Wistar rats [8] = experiment: Rat caecal ligation and puncture (CLP), severe sepsis; format: in vivo
Protocol: Rat caecal ligation and puncture (CLP) assay for sepsis. The CLP assay was performed in male Wistar rats as previously described (see Hubbard, W. J. et al. Cecal ligation and puncture. Shock 24 Suppl 1, 52-57 (2005).). Test compounds (50 mg kg^−1) dissolved in saline or an equivalent volume of saline only (Control cohort) were administered i.p. 5 min pre-CLP and 5, 10 and 15 h post-op until cessation of the experiment at 20 h. Sham-CLP rats underwent the same procedure, however, the caecum was not ligated or punctured and these rats received saline at the same times as above. At the conclusion of the experimental time period (20 h) or when morbidity required ethical euthanasia, the rats were anaesthetised and blood was collected via cardiac puncture into EDTA for subsequent analysis of liver (ALT) and kidney (creatinine) function by the Department of Pathology, The Canberra Hospital. The propensity for clots to form within the blood samples of the saline treated control CLP animals (despite the presence of EDTA) prevented successful analysis of plasma samples from all animals.

Wistar rats [9] = experiment: Rat cardiac IRI model; format: in vivo; settings: 30 mg kg−1 into left ventricle 5 min prior to reperfusion
Protocol: Rat cardiac IRI model. […] Male Wistar rats were anaesthetised with isofluorane, intubated via tracheostomy and ventilated with a tidal volume of 1 ml 150 g^−1 and a respiratory rate of 65 breaths min^−1. Supplemental oxygen was delivered at a FiO2 of ˜30%. A left hemi-thoracotomy was performed to enable visualisation of the left ventricle. The left coronary arterial plexus (LCA) was occluded using an atraumatic snare for 30 min prior to reperfusion for 30 min. Ischemia was confirmed by myocardial hyperaemia. The test compounds (30 mg kg^−1) or an equivalent volume (200 μl) of saline were injected into the lumen of the left ventricle (confirmed with aspiration) 5 min prior to the release of the snare for the reperfusion phase.
At the conclusion of reperfusion (30 min), Thioflavin S (1 ml 200 g^−1 of body weight) was slowly injected into the lumen of the left ventricle, to define the territory of microvascular obstruction (MVO) within the ischemic zone (IZ). The IZ territory was determined by the re-occlusion of the atraumatic snare and infusion of blue microspheres into the left ventricle (Unisperse Blue, BASF), distributed within solutions via ultrasonication using a CD-6800 (Unisonics) sonicator. […] Planimetry (Image J, Freeware) was used to quantify the areas of the IZ, MVO and necrosis.

C57BL/6 mice = experiment: Murine deep vein thrombosis (DVT) model, histone-mediated; format: in vivo, mouse; settings: CBS 50 mg/kg i.v. 5 min after histones 10 mg/kg i.v., 48 h
Protocol: Murine deep vein thrombosis (DVT) model. The procedure used is largely as previously described (see Brill, A. et al. Neutrophil extracellular traps promote deep vein thrombosis in mice. J Thromb Haemost 10, 136-144, doi: 10.1111/j.1538-7836.2011.04544.x (2012)). […] The peritoneum and skin were closed following which all mice received an i.v. injection of histones via the tail vein (10 mg kg^−1) or an equivalent volume of saline followed 5 min later by an i.v. injection of test compounds (50 mg kg^−1) or saline. Mice were monitored for 48 h after which they were re-anesthetised, re-opened and any thrombi that had developed distal to the IVC stenosis were removed for analysis. Sham operated control animals received laparotomy and 90% ligation of the IVC, however the ligation was removed immediately after occlusion of the IVC.

human liver microsomes = experiment: Phase I metabolism in human liver microsomes; settings: 1 μM, 1 h incubation, NADPH, 0.3 mg/ml microsomes
Protocol: (§1) A stock concentration of 25 μM mCBS dissolved in 50% methanol in water was added to the reaction tubes (10 μL). […] Samples were then vortex-mixed and centrifuged for 10 min at 14,000 rpm. Half of the samples (375 μl) were transferred to glass tubes and evaporated under a stream of nitrogen and at 37° C. Samples were then reconstituted in mobile phase A (250 μL). The final concentration of mCBS was 1 μM in the incubation medium.
(§2) The reaction mixtures were incubated for 1 hour with sampling in triplicate at 0, 15, 30, 45 and 60 min time points. A negative control (no NADPH) was used in parallel with the study samples. A positive control; midazolam, 25 μM (10 μL) was incubated in the same condition for 1 h. The final concentration of midazolam was 1 μM in the incubation medium

rat liver microsomes = experiment: Phase I metabolism in rat liver microsomes; settings: 1 μM, 1 h incubation, NADPH, 0.3 mg/ml microsomes
Protocol: as §1, §2

dog liver microsomes = experiment: Phase I metabolism in dog liver microsomes; settings: 1 μM, 1 h incubation, NADPH, 0.3 mg/ml microsomes
Protocol: as §1, §2

melezitose sulfate
clot formation (whole blood coagulation): No clotting was detected
clot formation (whole blood coagulation; listed as melezitose): no clot was detected

cellobiose sulfate [CBS]
level relative to starting amount (T=0) over time [1]: drops very rapidly and is almost gone by around 3 months
stability when stored in powder ([2]; 24 months): stable
level in bulk powder ([2]; T0 (months)): 0.23 CAD %
level in bulk powder ([2]; T1): 0.25 CAD %
level in bulk powder ([2]; T3): 0.28 CAD %
level in bulk powder ([2]; T6): 0.32 CAD %
level in bulk powder ([2]; T9): 0.36 CAD %
level in bulk powder ([2]; T12): 0.36 CAD %
level in bulk powder ([2]; T18): 0.36 CAD %
level in bulk powder ([2]; T24): 0.29 CAD %
level in phosphate buffered pH 7.5 formulation ([3]; 2-8° C., T0 (months)): 0.25 CAD %
level in phosphate buffered pH 7.5 formulation ([3]; 2-8° C., T2): 0.03 CAD %
level in phosphate buffered pH 7.5 formulation ([3]; 2-8° C., T3): 0.07 CAD %
level in phosphate buffered pH 7.5 formulation ([3]; 2-8° C., T7): 0.03 CAD %
level in phosphate buffered pH 7.5 formulation ([3]; 2-8° C., T10): 0.04 CAD %
level in phosphate buffered pH 7.5 formulation ([3]; 2-8° C., T13): 0.04 CAD %
level in phosphate buffered pH 7.5 formulation ([3]; 2-8° C., T19): <0.03 CAD %
stability when stored in aqueous buffered solution ([3]; 2-8° C., over 18 months): highly unstable
level reduced to (detection limit) ([3]; aqueous buffered solution, within 3-6 month of storage at 2-8° C.): 0.03 CAD %
inhibition of histone-induced RBC aggregation (human RBCs [4]): inhibit histone-induced RBC aggregation in a dose dependent manner
inhibition of histone-induced RBC lysis under shear (human RBCs [5]): inhibit histone-induced lysis under shear in a dose-dependent manner
histone-induced platelet aggregation (human platelets): significantly reduced
histone-induced platelet degranulation (ATP release) [6]: significantly reduced
incidence of rapid bilayer rupture ([7]; histones 1 μM + CBS, 3 of 52 bilayers, within 0.3 to 0.5 min): 5.8%
average bilayer lifetime ([7]; histones 1 μM in the presence of CBS 10 μM): 18 ± 4 min and 36 ± 5 min
protection from histone-induced organ damage (LDH, ALT, creatinine) (mice): protects animals from histone-mediated injury
high ALT and creatinine levels (liver and kidney damage) (Wistar rats [8]; CBS treated animals): not seen
mortality (Wistar rats [8]; CBS treatment group vs controls): no mortalities
area of microvascular obstruction (Wistar rats [9]): significantly reduced
reduction of myocardial necrosis in the ischemic zone (Wistar rats [9]): 50%
histone-mediated deep vein thrombosis (C57BL/6 mice): almost totally inhibited

O=C[C@H](O)[C@@H](O)[C@H](O[C@@H]1O[C@H](CO)[C@@H](O)[C@H](O)[C@H]1O)[C@H](O)CO [CB, cellobiose]
histone-induced platelet aggregation (human platelets): no inhibitory activity
histone-induced platelet degranulation (ATP release) [6]: no inhibitory activity
protection from histone-induced organ damage (LDH, ALT, creatinine) (mice): inactive

Cc1ncc2n1-c1ccc(Cl)cc1C(c1ccccc1F)=NC2 [midazolam]
phase I metabolic stability (human liver microsomes): almost completely metabolised
phase I metabolic stability (rat liver microsomes): almost completely metabolised
phase I metabolic stability (dog liver microsomes): almost completely metabolised
